Results taken from US20220324796A1, “ANTIBIOTIC COMPOUNDS” (The General Hospital Corporation, priority 2019, published 2022).

What was measured:
[1] = Giant unilamellar vesicles (GUVs) assay, bacterial mimetic
Description: (§1) Giant unilamellar vesicles (GUVs) assay. GUVs were prepared by slightly modifying the electroformation method described previously. 1,2-dioleoyl-sn-glycero-3-phosphocholine (DOPC), 1,2-dioleoyl-sn-glycero-3-phospho-(1′-rac-glycerol) (DOPG), 1-palmitoyl-2-oleoyl-glycero-3-phosphocholine (POPC), cholesterol (ovine wool) and 1,2-dioleoyl-sn-glycero-3-phosphoethanolamine-N-(lissamine rhodamine B sulfonyl) (18:1 Liss Rhod PE) were purchased from Avanti Polar Lipids (Alabaster, Ala., USA). 4 mM lipid mixtures consisting of DOPC/DOPG/18:1 Liss Rhod PE (7:3:0.005) and POPC/cholesterol/18:1 Liss Rhod PE (7:3:0.005) were dissolved in chloroform respectively. Same procedure was used to prepare both kinds of GUVs. Indium tin oxide (ITO)-coated slides (50×75×1.1 mm, Delta Technologies, Loveland, Colo., USA) were coated with […] of the lipid mixture and dried in a vacuum chamber for 2 h to remove chloroform. An electroformation chamber was made by placing a 2 mm thick Teflon spacer between the two lipid-coated ITO slides. […] After adding 1 μl of compound solution to a well (final compound concentration: 1× MIC), the GUVs were observed and imaged with an optical microscope equipped with fluorescence contrast and a digital camera (63x objectives, Axio Observer. A1 & AxioCam MRm, Zeiss, Germany). […]

[2] = Giant unilamellar vesicles (GUVs) assay, mammalian mimetic
Description: as §1

[3] = Hepatic and renal toxicity (ALT, BUN) in infected mice; format: in vivo, mouse; conditions: 30 mg/kg i.p., every 12 h for 3 days
Description: Deep-seated mouse thigh infection model. In vivo efficacy of bithionol alone or in combination with gentamicin against MRSA strain MW2 persisters was evaluated using a previously described neutropenic mouse thigh infection model with modifications. Six-week-old female CD-1 mice (20-25 g, Charles River Laboratories, Wilmington, Mass., USA) were rendered neutropenic by administering 150 mg/kg and 100 mg/kg of cyclophosphamide intraperitoneally (i.p.) at 4 days and 1 day before infection, respectively. On the day of infection, overnight culture of S. aureus MW2 were washed 3 times with sterile saline and diluted to ˜10^4 CFU/mL in saline. 50 μl of the diluted culture was injected to the right thigh of each mouse. Bithionol was dissolved in Kolliphor EL (Sigma-Aldrich, St Louis, Mo., USA)/ethanol 1:1 and then diluted 1:10 in saline to a final concentration of 30 mg/kg. […] The levels of alanine aminotransferase and blood urea nitrogen were analyzed with commercially available kits, following the manufacturer's protocol (Pointe Scientific, Canton, Mich., USA) to evaluate hepatic and renal toxicities. […] Statistical significance among each group in animal studies was analyzed by one-way ANOVA with post-hoc Tukey test using GraphPad Prism 7 (GraphPad Software, La Jolla, Calif., USA).

S. aureus MW2 = assay: Transmission electron microscopy; format: cell-based; conditions: 10× MIC, 2 h
Description: Transmission electron microscopy. S. aureus MW2 was grown to exponential phase (OD600=˜0.4) at 37° C. Bacterial cultures were then treated with 10× MIC of bithionol or 0.1% DMSO (control) at 37° C. for 2 h. 1 mL of the treated bacterial samples were fixed with the same volume of a 2× fixative, a mixture of 5% glutaraldehyde, 2.5% paraformaldehyde and 0.06% picric acid in 0.2 M sodium cacodylate buffer (pH 7.4). Fixed cells were washed in 0.1 M cacodylate buffer and post-fixed with 1% Osmium tetroxide (OsO4)/1.5% Potassium ferrocyanide (KFeCN6) for 1 h. The fixed cells were washed twice in water, once in maleate buffer, and incubated in the maleate buffer containing 1% uranyl acetate for lh. Cells were then washed twice in water and subsequently dehydrated in an alcohol gradient series (10 min each; 50%, 70%, 90%, 2×10 min 100%). The cells were then incubated in propyleneoxide for 1 h, infiltrated overnight in a 1:1 mixture of propyleneoxide and Spurr's low viscosity resin (Electron Microscopy sciences, Hatfield, Pa.) and polymerized at 60° C. for 48 h. Ultrathin sections (about 60 nm) were cut on a Reichert Ultracut-S microtome (Leica Microsystem, Wetzlar, Germany), picked up onto copper grids, and stained with lead citrate. Micrographs of the cells were taken using a JEOL 1200EX transmission electron microscope (Harvard Medical School EM facility).

Oc1c(Cl)cc(Cl)cc1Sc1cc(Cl)cc(Cl)c1O [bithionol, 6,6′-thio-bis-(2,4-dichlorophenol)]
effect on DOPC/DOPG GUVs ([1]; 1 μg/mL): Lipid aggregates formed on the surfaces of the GUVs
effect on DOPC/DOPG GUVs ([1]; 10 μg/mL): the GUVs burst
effect on 7POPC/3 cholesterol GUVs [2]: did not cause observable effects
hepatic or renal toxicity (ALT and BUN) [3]: no signs of hepatic or renal toxicity
TEM findings (S. aureus MW2): disrupts MRSA membranes
